Experimental findings from patent publication US10829478B2, “5-[3-[piperazin-1-yl]-3-oxo-propyl]-imidazolidine-2,4-dione derivatives as ADAMTS 4 and 5 inhibitors for treating e.g. osteoarthritis” (Galapagos NV, priority 2016, dated 2020) are described below.

The target of experiment [1] is T1, human MMP13 (Homo sapiens (Human), UniProt P45452). In words: hMMP13 assay, Protocol 1 (390 MMP FRET Substrate I, Chemicon enzyme). It is filed as biochemical. To be noted: Protocol 1, human MMP13 (Chemicon), read-out: hMMP-13 potency IC50. The procedure:
(§1) Human MMP13 is preactivated by incubated the enzyme in the same buffer complemented with 1 mM freshly prepared p-Aminophenylmercuric acetate (AMPA) for 1 h at 37° C.

Experiment [2] deals with rnADAMTS-5 (1-564-6H) (Rattus norvegicus (Rat), UniProt Q6TY19). Description: Rat ADAMTS-5 TBIS-1 cleavage assay. The format is biochemical. The note with it: 120 min at 37° C.; read-out: Rat ADAMTS-5 potency IC50.
rnADAMTS-5 (1-564-6H), sequence (Q6TY19 entry or part of it): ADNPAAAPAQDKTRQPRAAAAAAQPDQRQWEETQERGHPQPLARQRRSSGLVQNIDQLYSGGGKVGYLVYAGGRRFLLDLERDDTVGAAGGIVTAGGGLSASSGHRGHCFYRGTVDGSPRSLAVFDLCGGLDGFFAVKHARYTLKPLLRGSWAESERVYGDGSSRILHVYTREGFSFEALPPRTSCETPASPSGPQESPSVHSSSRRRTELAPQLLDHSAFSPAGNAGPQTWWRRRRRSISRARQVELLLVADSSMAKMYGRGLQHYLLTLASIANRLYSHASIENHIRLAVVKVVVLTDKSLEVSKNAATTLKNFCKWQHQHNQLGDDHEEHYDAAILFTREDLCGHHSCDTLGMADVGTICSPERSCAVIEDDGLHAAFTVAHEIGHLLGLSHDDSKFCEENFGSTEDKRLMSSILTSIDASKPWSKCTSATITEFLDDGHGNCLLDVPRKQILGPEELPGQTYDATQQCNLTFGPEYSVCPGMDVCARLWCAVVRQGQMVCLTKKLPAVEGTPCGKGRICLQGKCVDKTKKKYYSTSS
Experiment [3] deals with human ADAMTS6 (Homo sapiens (Human), UniProt Q9UKP5). In words: hADAMTS-6 fluorescent based protease assay (520 MMP FRET substrate XII). The format is biochemical. The note with it: 37° C. for 2 h; read-out: hADAMTS-6 potency IC50. The procedure, abridged:
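ADAMTS6 (0.73 nM final) in 25 mM Tris pH 8.0, 0.05% CHAPS, 2.5 mM CaCl2 with compound dilution series (top 20 μM, 1/5 steps). Reaction started with 520 MMP FRET Substrate XII, incubated 2 h at 37 °C. Substrate cleavage read by fluorescence ex485/em530; IC50 determined.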

Experiment [4] deals with human TACE (Homo sapiens (Human), UniProt P78536). Description: biochemical.
human TACE, sequence (P78536 215-671): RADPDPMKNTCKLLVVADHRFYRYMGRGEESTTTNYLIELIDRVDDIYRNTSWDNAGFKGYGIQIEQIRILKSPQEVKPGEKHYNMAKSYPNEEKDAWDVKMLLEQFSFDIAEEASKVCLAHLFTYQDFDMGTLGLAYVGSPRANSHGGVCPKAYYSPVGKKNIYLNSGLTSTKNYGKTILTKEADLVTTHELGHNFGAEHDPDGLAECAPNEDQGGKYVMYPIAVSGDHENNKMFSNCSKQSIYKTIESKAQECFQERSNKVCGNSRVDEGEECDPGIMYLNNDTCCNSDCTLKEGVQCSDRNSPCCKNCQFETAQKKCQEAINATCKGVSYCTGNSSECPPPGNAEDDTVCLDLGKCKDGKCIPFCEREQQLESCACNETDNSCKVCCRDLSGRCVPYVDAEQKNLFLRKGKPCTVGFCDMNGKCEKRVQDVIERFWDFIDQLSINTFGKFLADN
Procedure: Finally, the fluorescence is read on the Envision (Perkin Elmer) after an incubation of 75 min at room temperature (Excitation 485 nm, Emission 530).
Experiment [5] deals with human ADAMTS-5 (Homo sapiens (Human), UniProt Q9UNA0). Description: hADAMTS-5 TBIS-1 cleavage assay, Protocol 3. The note with it: 90 min at 37° C., read-out: hADAMTS-5 potency IC50. The format is biochemical.
human ADAMTS-5, sequence (Q9UNA0 262-930): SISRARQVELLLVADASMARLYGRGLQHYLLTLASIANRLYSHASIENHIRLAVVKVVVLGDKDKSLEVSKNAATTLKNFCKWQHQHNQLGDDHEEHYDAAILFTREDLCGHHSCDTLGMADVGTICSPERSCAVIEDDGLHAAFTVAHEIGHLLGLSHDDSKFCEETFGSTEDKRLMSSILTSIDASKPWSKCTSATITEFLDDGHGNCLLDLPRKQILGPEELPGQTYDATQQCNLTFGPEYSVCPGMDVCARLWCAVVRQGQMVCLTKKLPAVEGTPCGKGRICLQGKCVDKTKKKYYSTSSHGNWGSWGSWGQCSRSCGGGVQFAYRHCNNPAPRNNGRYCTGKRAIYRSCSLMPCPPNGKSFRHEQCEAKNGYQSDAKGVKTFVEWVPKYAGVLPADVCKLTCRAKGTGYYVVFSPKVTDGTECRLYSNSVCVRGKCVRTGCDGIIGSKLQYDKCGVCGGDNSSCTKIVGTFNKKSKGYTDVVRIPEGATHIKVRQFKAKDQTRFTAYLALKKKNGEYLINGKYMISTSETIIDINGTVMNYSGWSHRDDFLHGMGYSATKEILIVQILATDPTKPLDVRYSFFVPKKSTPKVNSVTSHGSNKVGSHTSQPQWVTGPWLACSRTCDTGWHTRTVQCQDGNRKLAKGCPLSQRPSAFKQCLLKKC
Procedure: The reaction is initiated by adding to the assay plate TBIS-1 (10 μL, 4.5 μM, Anaspec) in the same buffer.
Finally, the fluorescence is read on the Envision (Perkin Elmer) after an incubation of 90 min at 37° C. (Excitation 485 nm, emission 530).
Experiment [6] deals with human ADAMTS4 (Homo sapiens (Human), UniProt O75173). Description: hADAMTS-4 TBIS-1 cleavage assay, Protocol 2. The format is biochemical.
human ADAMTS4, sequence (O75173 213-837): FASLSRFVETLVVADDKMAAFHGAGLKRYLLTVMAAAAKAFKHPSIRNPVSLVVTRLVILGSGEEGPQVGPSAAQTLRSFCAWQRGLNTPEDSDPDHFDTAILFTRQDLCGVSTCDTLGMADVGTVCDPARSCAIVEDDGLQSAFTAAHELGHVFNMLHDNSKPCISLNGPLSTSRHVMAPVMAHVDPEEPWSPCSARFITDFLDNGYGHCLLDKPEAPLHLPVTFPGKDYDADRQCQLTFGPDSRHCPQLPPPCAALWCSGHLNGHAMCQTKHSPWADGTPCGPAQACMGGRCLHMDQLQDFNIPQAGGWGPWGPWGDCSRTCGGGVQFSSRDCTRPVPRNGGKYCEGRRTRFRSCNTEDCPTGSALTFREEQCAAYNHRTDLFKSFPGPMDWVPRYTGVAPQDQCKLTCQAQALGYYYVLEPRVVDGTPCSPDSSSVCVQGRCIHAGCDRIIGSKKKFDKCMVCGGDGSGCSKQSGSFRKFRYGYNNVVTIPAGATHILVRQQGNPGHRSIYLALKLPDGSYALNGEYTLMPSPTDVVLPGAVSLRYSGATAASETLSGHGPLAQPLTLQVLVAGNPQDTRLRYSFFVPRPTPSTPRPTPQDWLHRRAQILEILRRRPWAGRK
Experiment [7] concerns the target human MMP14 (Homo sapiens (Human), UniProt P50281). In words: hMMP14 assay (390 MMP FRET Substrate I). It is filed as biochemical. The note with it: human MMP14 (Biomol), read-out: hMMP-14 potency IC50.
Procedure: The basis for the assay is the cleavage of the substrate 390 MMP FRET Substrate I (Anaspec Cat #AS-27076) by human MMP14 (Biomol, Cat #SE-259).
The reaction is initiated by adding to the assay plate 390 MMP FRET Substrate I (10 μL, 2.5 μM) in the same buffer.
Finally, the fluorescence is read on the Envision (Perkin Elmer) after an incubation of 60 min at room temperature (Excitation 485 nm, Emission 530).
For experiment [8], the target named is T1, human MMP13. Description: hMMP13 assay, Protocol 2 (390 MMP FRET Substrate I, Enzo enzyme). It is filed as biochemical. To be noted: Protocol 2, human MMP13 (Enzo Life Sciences), read-out: hMMP-13 potency IC50. The procedure:
as §1

[9] abbreviates: Protocol 2, 180 min at 37° C., read-out: ADAMTS4 potency IC50.

Where two headings read alike, the source gives them in different places.

human ADAMTS6, sequence (Q9UKP5 other isoform, or with tags, fused parts or gaps): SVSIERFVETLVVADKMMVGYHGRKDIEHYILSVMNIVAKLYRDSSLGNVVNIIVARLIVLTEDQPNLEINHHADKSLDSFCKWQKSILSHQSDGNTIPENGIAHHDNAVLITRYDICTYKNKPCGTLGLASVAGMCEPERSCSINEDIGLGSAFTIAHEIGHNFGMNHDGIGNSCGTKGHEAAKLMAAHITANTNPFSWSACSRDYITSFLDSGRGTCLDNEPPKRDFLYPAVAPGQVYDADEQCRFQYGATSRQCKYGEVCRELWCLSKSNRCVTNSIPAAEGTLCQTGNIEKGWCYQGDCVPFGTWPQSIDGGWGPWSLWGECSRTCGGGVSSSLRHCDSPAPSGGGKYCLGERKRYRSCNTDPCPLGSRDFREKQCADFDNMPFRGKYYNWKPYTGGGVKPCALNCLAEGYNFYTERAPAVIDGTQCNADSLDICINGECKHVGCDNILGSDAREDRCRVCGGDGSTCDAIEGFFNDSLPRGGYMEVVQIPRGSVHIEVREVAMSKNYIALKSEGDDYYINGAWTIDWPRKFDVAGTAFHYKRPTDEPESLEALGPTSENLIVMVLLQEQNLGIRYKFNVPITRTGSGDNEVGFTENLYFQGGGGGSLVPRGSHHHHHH

With `COc1cc(N2CCN(C(=O)[C@@H](C)C[C@@]3(C)NC(=O)NC3=O)CC2)cc(OC)c1Cl` (stereo in doubt) [Cpd 40, 5-[3-[4-(4-chloro-3,5-dimethoxy-phenyl)piperazin-1-yl]-2-methyl-3-oxo-propyl]-5-methyl-imidazolidine-2,4-dione], the IC50 in experiment [1] was over 100 nM; in experiment [2] it was over 100 nM; in experiment [3] it was 0.001 to 25 nM; in experiment [4], over 100 nM; in experiment [5], 50 to 100 nM; in experiment [6] it was 25 to 50 nM.
Consider `COc1cc(F)cc(N2CCN(C(=O)[C@H](C)C[C@@]3(C4CC4)NC(=O)NC3=O)CC2)c1` (stereo in doubt) [Cpd 130, 5-cyclopropyl-5-[3-[4-(3-fluoro-5-methoxy-phenyl)piperazin-1-yl]-2-methyl-3-oxo-propyl]imidazolidine-2,4-dione], for which the IC50 in experiment [2], in experiment [3] and in experiment [5] was over 100 nM in each case.
With `COc1cc(F)cc(N2CCN(C(=O)[C@H](C)C[C@@]3(C)NC(=O)NC3=O)CC2)c1` (stereo in doubt) [Cpd 131, 5-[3-[4-(3-fluoro-5-methoxy-phenyl)piperazin-1-yl]-2-methyl-3-oxo-propyl]-5-methyl-imidazolidine-2,4-dione], the half-inhibitory concentration (IC50) in experiment [2], in experiment [3] and in experiment [5] was over 100 nM in each case.
Regarding `COc1cc(N2CCN(C(=O)CCC3(C4CC4)NC(=O)NC3=O)C[C@@H]2C)cc(F)c1F` (stereo partly drawn) [Cpd 21, 5-cyclopropyl-5-[3-[(3S)-4-(3,4-difluoro-5-methoxy-phenyl)-3-methyl-piperazin-1-yl]-3-oxo-propyl]imidazolidine-2,4-dione], the IC50 in experiment [1] was over 100 nM; in experiment [2], 0.001 to 25 nM; in experiment [3], 0.001 to 25 nM; in experiment [4], over 100 nM; in experiment [5], 0.001 to 25 nM; in experiment [6], 50 to 100 nM.
Regarding `COc1cc(F)cc(N2CCN(C(=O)CCC3(c4cccnc4)NC(=O)NC3=O)CC2)c1` (stereo not drawn) [Cpd 23, 5-[3-[4-(3-fluoro-5-methoxy-phenyl)piperazin-1-yl]-3-oxo-propyl]-5-(3-pyridyl)imidazolidine-2,4-dione], the IC50 is over 100 nM in experiment [1]; 50 to 100 nM in experiment [2]; 25 to 50 nM in experiment [3]; over 100 nM in experiment [4]; 50 to 100 nM in experiment [5]; 50 to 100 nM in experiment [6].
With `COc1cc(OC)cc(N2CCN(C(=O)CCC3(C)NC(=O)NC3=O)C[C@@H]2C)c1` (stereo partly drawn) [Cpd 25, 5-[3-[(3 S)-4-(3,5-dimethoxyphenyl)-3-methyl-piperazin-1-yl]-3-oxo-propyl]-5-methyl-imidazolidine-2,4-dione], the half-maximal inhibitory concentration (IC50) was over 100 nM in experiment [1]; over 100 nM in experiment [2]; 25 to 50 nM in experiment [3]; over 100 nM in experiment [4]; over 100 nM in experiment [5]; over 100 nM in experiment [6] (setting [9]).
For the compound `COc1cc(F)cc(N2CCN(C(=O)[C@@H](C)C[C@@]3(C4CC4)NC(=O)NC3=O)CC2)c1` [Cpd 26, (5 S)-5-cyclopropyl-5-[(2S)-3-[4-(3-fluoro-5-methoxy-phenyl)piperazin-1-yl]-2-methyl-3-oxo-propyl]imidazolidine-2,4-dione], the IC50 in experiment [1] was over 100 nM; in experiment [2], 0.001 to 25 nM; in experiment [3] it was 0.001 to 25 nM; in experiment [4] it was over 100 nM; in experiment [5] it was 0.001 to 25 nM; in experiment [6], 0.001 to 25 nM.
As to `COc1cc(F)cc(N2CCN(C(=O)[C@@H](C)C[C@@]3(C)NC(=O)NC3=O)CC2)c1` [Cpd 27, (5R)-5-[(2S)-3-[4-(3-fluoro-5-methoxy-phenyl)piperazin-1-yl]-2-methyl-3-oxo-propyl]-5-methyl-imidazolidine-2,4-dione], the IC50 in experiment [1] is over 100 nM; in experiment [2] it was 25 to 50 nM; in experiment [3] it was 0.001 to 25 nM; in experiment [4], over 100 nM; in experiment [5] it was 25 to 50 nM; in experiment [6], 25 to 50 nM.
For `COc1cc(N2CCN(C(=O)CCC3(c4cccnc4)NC(=O)NC3=O)CC2)cc(F)c1F` (stereo not drawn) [Cpd 28, 5-[3-[4-(3,4-difluoro-5-methoxy-phenyl)piperazin-1-yl]-3-oxo-propyl]-5-(3-pyridyl)imidazolidine-2,4-dione], the half-inhibitory concentration (IC50) in experiment [1] was over 100 nM; in experiment [2], 50 to 100 nM; in experiment [3], 25 to 50 nM; in experiment [4] it was over 100 nM; in experiment [5], over 100 nM; in experiment [6] (setting [9]) it was over 100 nM.
Turning to `COc1cc(N2CCN(C(=O)[C@@H](C)C[C@@]3(C4CC4)NC(=O)NC3=O)C[C@@H]2C)cc(F)c1F` [Cpd 29, 5-cyclopropyl-5-[(2S)-3-[(3S)-4-(3,4-difluoro-5-methoxy-phenyl)-3-methyl-piperazin-1-yl]-2-methyl-3-oxo-propyl]imidazolidine-2,4-dione], the concentration for half-maximal inhibition (IC50) in experiment [1] was over 100 nM; in experiment [2] it was 25 to 50 nM; in experiment [3], 0.001 to 25 nM; in experiment [4], over 100 nM; in experiment [5] it was 25 to 50 nM; in experiment [6] it was 25 to 50 nM.
For the compound `COc1cc(N2CCN(C(=O)CCC3(C)NC(=O)NC3=O)C[C@@H]2C)cc(OC)c1Cl` (stereo partly drawn) [Cpd 30, 5-[3-[(3 S)-4-(4-chloro-3,5-dimethoxy-phenyl)-3-methyl-piperazin-1-yl]-3-oxo-propyl]-5-methyl-imidazolidine-2,4-dione], the IC50 was over 100 nM in experiment [1]; over 100 nM in experiment [2]; 0.001 to 25 nM in experiment [3]; over 100 nM in experiment [4]; over 100 nM in experiment [5]; over 100 nM in experiment [6] (setting [9]).
`COc1cc(N2CCN(C(=O)CCC3(C)NC(=O)NC3=O)CC2)cc(OC)c1Cl` (stereo not drawn) [Cpd 31, 5-[3-[4-(4-chloro-3,5-dimethoxy-phenyl)piperazin-1-yl]-3-oxo-propyl]-5-methyl-imidazolidine-2,4-dione]: the IC50 in experiment [1] was over 100 nM; in experiment [2] it was over 100 nM; in experiment [3], 0.001 to 25 nM; in experiment [4] it was over 100 nM; in experiment [5], over 100 nM; in experiment [6] (setting [9]), over 100 nM.
In the case of `COC[C@]1(C[C@H](C)C(=O)N2CCN(c3cc(F)c(Cl)c(OC)c3)CC2)NC(=O)NC1=O` [Cpd 123, (5 S)-5-[(2S)-3-[4-(4-chloro-3-fluoro-5-methoxy-phenyl)piperazin-1-yl]-2-methyl-3-oxo-propyl]-5-(methoxymethyl)imidazolidine-2,4-dione], the half-inhibitory concentration (IC50) in experiment [7] was over 100 nM; in experiment [3], 0.001 to 25 nM; in experiment [8], over 100 nM; in experiment [4], over 100 nM; in experiment [5], 0.001 to 25 nM; in experiment [6] it was 50 to 100 nM.
With `COc1cc(N2CCN(C(=O)CC[C@]3(C)NC(=O)NC3=O)C[C@@H]2C)ccc1Cl` [Cpd 146, (5 S)-5-[3-[(3 S)-4-(4-chloro-3-methoxy-phenyl)-3-methyl-piperazin-1-yl]-3-oxo-propyl]-5-methyl-imidazolidine-2,4-dione], the IC50 in experiment [7], in experiment [3], in experiment [8], in experiment [4], in experiment [5] and in experiment [6] (setting [9]) was over 100 nM in each case.
Consider `COc1cc(N2CCN(C(=O)CC[C@H]3NC(=O)NC3=O)CC2)cc(Cl)c1F` [Cpd 147, (5R)-5-[3-[4-(3-chloro-4-fluoro-5-methoxy-phenyl)piperazin-1-yl]-3-oxo-propyl]imidazolidine-2,4-dione], for which the IC50 was over 100 nM in experiment [7]; 0.001 to 25 nM in experiment [3]; over 100 nM in experiment [8]; over 100 nM in experiment [4]; over 100 nM in experiment [5]; over 100 nM in experiment [6] (setting [9]).
As to `COc1cc(N2CCN(C(=O)CC[C@H]3NC(=O)NC3=O)C[C@@H]2C)cc(Cl)c1F` [Cpd 148, (5R)-5-[3-[(3 S)-4-(3-chloro-4-fluoro-5-methoxy-phenyl)-3-methyl-piperazin-1-yl]-3-oxo-propyl]imidazolidine-2,4-dione], the half-inhibitory concentration (IC50) in experiment [7] was over 100 nM; in experiment [3], 0.001 to 25 nM; in experiment [8], over 100 nM; in experiment [4] it was over 100 nM; in experiment [5] it was 25 to 50 nM; in experiment [6] (setting [9]), over 100 nM.
For the compound `CCOc1cc(N2CCN(C(=O)CC[C@H]3NC(=O)NC3=O)C[C@@H]2C)cc(OC)c1Cl` [Cpd 150, (5R)-5-[3-[(3 S)-4-(4-chloro-3-ethoxy-5-methoxy-phenyl)-3-methyl-piperazin-1-yl]-3-oxo-propyl]imidazolidine-2,4-dione], the IC50 in experiment [7] was over 100 nM; in experiment [3], 0.001 to 25 nM; in experiment [8] it was over 100 nM; in experiment [4], over 100 nM; in experiment [5] it was over 100 nM; in experiment [6] (setting [9]) it was over 100 nM.
